Measurements reported in ChEMBL document CHEMBL1201862, “PubChem BioAssay data set” (2004).
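A five-concentration, 48-hour dose response in 96-well plates underlies each endpoint, interpolated linearly between surrounding concentrations. At the GI50, growth is halved.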 Calls of active or inactive are those of the source. No stated cut-off is given here; in the data, active = GI50 up to about 1.1 µM and inactive = higher.

Key:
Assay in all cases: DTP human tumour cell line panel, 48 h
SK-MEL-28 = test system: SK-MEL-28
SW-620 = test system: SW-620
M14 = test system: M14
HCT-116 = test system: HCT-116
SNB-75 = test system: SNB-75
SK-MEL-5 = test system: SK-MEL-5
K562 = test system: K562
MOLT-4 = test system: MOLT-4
KM12 = test system: KM12
PC-3 = test system: PC-3
SN12C = test system: SN12C
UACC-62 = test system: UACC-62
NCI-H23 = test system: NCI-H23
NCI-H226 = test system: NCI-H226
A498 = test system: A498
CAKI-1 = test system: CAKI-1
786-0 = test system: 786-0
SF-295 = test system: SF-295
OVCAR-3 = test system: OVCAR-3
OVCAR-8 = test system: OVCAR-8

Measured: GI50

c1ccc(Nc2nn3c(CCCCCCCCc4nnc5sc(Nc6ccccc6)nn45)nnc3s2)cc1
inactive: SK-MEL-28 27.6 µM | SW-620 29.2 µM | M14 16.5 µM | HCT-116 24.3 µM | SNB-75 22.4 µM | SK-MEL-5 12.2 µM | K562 15.3 µM | MOLT-4 14.7 µM | KM12 32.2 µM | PC-3 31 µM | SN12C 49.1 µM | UACC-62 34.6 µM | NCI-H23 21.3 µM | NCI-H226 40.9 µM | A498 36.2 µM | CAKI-1 29 µM | 786-0 23.4 µM | SF-295 24.4 µM | OVCAR-3 23.6 µM | OVCAR-8 22 µM

Cc1cc(C)c(P2C(=C(O[Si](C(C)C)(C(C)C)C(C)C)C(C)(C)C)C2(c2ccccc2)c2ccccc2)c(C)c1 (stereo unspecified)
inactive: SK-MEL-28 > 100 µM | SW-620 > 100 µM | M14 > 100 µM | HCT-116 52.8 µM | SNB-75 88.1 µM | SK-MEL-5 > 100 µM | K562 67 µM | MOLT-4 > 100 µM | KM12 94 µM | PC-3 57.9 µM | SN12C > 100 µM | UACC-62 > 100 µM | NCI-H23 > 100 µM | NCI-H226 > 100 µM | A498 > 100 µM | CAKI-1 > 100 µM | 786-0 > 100 µM | SF-295 > 100 µM | OVCAR-3 > 100 µM | OVCAR-8 > 100 µM

CC(C)C(=O)OCC1CCCN2CCCCC12 (stereo unspecified)
inactive: SK-MEL-28 97.9 µM | SW-620 > 100 µM | M14 > 100 µM | HCT-116 57.5 µM | SNB-75 > 100 µM | SK-MEL-5 > 100 µM | K562 51.3 µM | MOLT-4 50.8 µM | KM12 > 100 µM | PC-3 79.4 µM | SN12C > 100 µM | UACC-62 68.1 µM | NCI-H23 > 100 µM | NCI-H226 > 100 µM | A498 > 100 µM | CAKI-1 > 100 µM | 786-0 64.4 µM | SF-295 > 100 µM | OVCAR-3 > 100 µM | OVCAR-8 > 100 µM

CN(C)/C=N/n1c2ccccc2c2ccccc21
inactive: SK-MEL-28 > 100 µM | SW-620 > 100 µM | M14 > 100 µM | HCT-116 > 100 µM | SNB-75 71.1 µM | SK-MEL-5 > 100 µM | K562 > 100 µM | MOLT-4 69.8 µM | KM12 > 100 µM | PC-3 > 100 µM | SN12C > 100 µM | UACC-62 > 100 µM | NCI-H23 > 100 µM | NCI-H226 > 100 µM | A498 26.4 µM | CAKI-1 3.64 µM | 786-0 > 100 µM | SF-295 > 100 µM | OVCAR-3 > 100 µM | OVCAR-8 > 100 µM

COc1cc(S(=O)(=O)Nc2nc(-c3ccc(N4C(=O)C(CC(=O)O)SC4c4ccccc4O)cc3)cs2)ccc1Cl (stereo unspecified)
inactive: SK-MEL-28 > 100 µM | SW-620 > 100 µM | M14 > 100 µM | HCT-116 46.3 µM | SNB-75 > 100 µM | SK-MEL-5 29 µM | K562 38.2 µM | MOLT-4 49.5 µM | KM12 78.7 µM | PC-3 59.4 µM | SN12C > 100 µM | UACC-62 72.9 µM | NCI-H23 22.1 µM | NCI-H226 61.4 µM | A498 29.1 µM | CAKI-1 > 100 µM | 786-0 > 100 µM | SF-295 51.2 µM | OVCAR-3 55.7 µM | OVCAR-8 62.8 µM

COc1ccc(-n2sc3ncc(-c4ccccc4)cc3c2=O)cc1
inactive: SK-MEL-28 37 µM | SW-620 30.7 µM | M14 80 µM | HCT-116 23.1 µM | SNB-75 34.5 µM | SK-MEL-5 55.2 µM | KM12 50 µM | PC-3 42.9 µM | SN12C 27.9 µM | UACC-62 31 µM | NCI-H23 23.3 µM | NCI-H226 82.2 µM | A498 > 100 µM | CAKI-1 27.4 µM | 786-0 18.6 µM | SF-295 > 100 µM | OVCAR-3 20.3 µM | OVCAR-8 25.5 µM

COC(=O)c1cc(OCc2cc(OCc3ccc(Br)cc3)cc(OCc3ccc(Br)cc3)c2)cc(OCc2cc(OCc3ccc(Br)cc3)cc(OCc3ccc(Br)cc3)c2)c1
inactive: SK-MEL-28 > 100 µM | M14 > 100 µM | HCT-116 > 100 µM | SNB-75 > 100 µM | SK-MEL-5 > 100 µM | K562 > 100 µM | MOLT-4 > 100 µM | KM12 > 100 µM | PC-3 > 100 µM | SN12C > 100 µM | UACC-62 > 100 µM | NCI-H23 > 100 µM | NCI-H226 > 100 µM | A498 > 100 µM | CAKI-1 > 100 µM | 786-0 > 100 µM | SF-295 > 100 µM | OVCAR-3 > 100 µM
